Test results: ChEMBL document CHEMBL1132838, “Determination of the relative and absolute stereochemistry of a potent and alpha1A-selective adrenoceptor antagonist” (Bioorg Med Chem Lett, 2000)

Legend:
[1] = target: T1, Alpha-1B adrenergic receptor (Homo sapiens, UniProt P35368); experiment: Tested for binding affinity against recombinant human Alpha-1B adrenergic receptor using [125I]HEAT in competition binding assay
T1 sequence (P35368 whole entry): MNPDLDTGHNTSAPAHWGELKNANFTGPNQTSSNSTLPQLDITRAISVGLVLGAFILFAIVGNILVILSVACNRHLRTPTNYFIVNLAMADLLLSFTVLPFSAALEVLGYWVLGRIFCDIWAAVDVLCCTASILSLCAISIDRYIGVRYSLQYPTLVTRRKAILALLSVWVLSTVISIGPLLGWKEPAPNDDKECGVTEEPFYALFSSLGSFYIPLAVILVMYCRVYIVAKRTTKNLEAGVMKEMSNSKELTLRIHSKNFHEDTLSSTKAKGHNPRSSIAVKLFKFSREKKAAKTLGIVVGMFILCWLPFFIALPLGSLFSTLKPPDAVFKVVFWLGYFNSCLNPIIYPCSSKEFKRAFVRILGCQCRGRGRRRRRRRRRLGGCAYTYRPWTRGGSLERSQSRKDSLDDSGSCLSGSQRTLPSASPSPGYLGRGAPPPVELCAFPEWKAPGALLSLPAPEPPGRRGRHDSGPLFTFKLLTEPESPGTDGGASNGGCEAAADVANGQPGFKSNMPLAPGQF

[2] = target: T2, Alpha-1D adrenergic receptor (Homo sapiens, UniProt P25100); experiment: Tested for binding affinity against recombinant human Alpha-1D adrenergic receptor using [125I]-HEAT in competition binding assay
T2 sequence (P25100 whole entry): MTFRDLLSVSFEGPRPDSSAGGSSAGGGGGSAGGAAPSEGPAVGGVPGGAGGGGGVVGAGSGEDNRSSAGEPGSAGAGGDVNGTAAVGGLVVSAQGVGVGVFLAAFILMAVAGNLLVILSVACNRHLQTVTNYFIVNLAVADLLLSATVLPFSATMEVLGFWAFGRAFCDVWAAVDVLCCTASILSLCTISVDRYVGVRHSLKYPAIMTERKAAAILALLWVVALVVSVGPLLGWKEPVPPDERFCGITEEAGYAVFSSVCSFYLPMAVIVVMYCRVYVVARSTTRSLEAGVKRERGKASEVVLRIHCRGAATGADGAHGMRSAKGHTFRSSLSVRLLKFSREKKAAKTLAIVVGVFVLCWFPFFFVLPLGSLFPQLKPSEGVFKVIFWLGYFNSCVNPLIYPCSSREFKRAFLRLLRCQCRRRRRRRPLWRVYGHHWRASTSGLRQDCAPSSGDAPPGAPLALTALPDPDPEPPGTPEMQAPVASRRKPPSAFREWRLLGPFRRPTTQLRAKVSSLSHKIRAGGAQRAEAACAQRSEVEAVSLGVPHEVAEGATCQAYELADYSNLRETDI

Row | Compound | Ki [1] [nM] | Ki [2] [nM]
1 | C[C@@H]1OC(=O)N(C(=O)NCCCN2CCC(c3ccc(F)cc3)CC2)[C@@H]1c1ccc(F)c(F)c1 | 76 | –
2 | C[C@H]1OC(=O)N(C(=O)NCCCN2CCC(c3ccc(F)cc3)CC2)[C@H]1c1ccc(F)c(F)c1 | 48 | 92
3 | C[C@H]1OC(=O)N(C(=O)NCCCN2CCC(c3ccc(F)cc3)CC2)[C@@H]1c1ccc(F)c(F)c1 | 74 | 193
